Measurements reported in patent US5453444A, “Method to mitigate or eliminate weight loss” (Otsuka Pharmaceutical Co., Ltd., priority 1994, dated 1995).
Values joined by “and” are separate entries in the source; they are usually repeats but may differ in a detail not shown here. Equal entries are not always repeated. “Also recorded” adds a separate entry of the source. Structures can show the parent of a compound that is named as a salt.

Columns and labels:
[1] = test system: IL-6; assay: IL-6 dependent proliferation of B-9 cells (3H-thymidine incorporation); type: cell-based; settings: for cpm of 3H-thymidine incorporation, B-9 cells: Table 5; for proliferation of B-9 cells in response to IL-6: result in words; for cpm of 3H-thymidine, B-9 cells: Table 3
Procedure: A standard proliferation assay, Strassmann et al., J. Immunol., 147:1279-1285 (1991), was conducted using 96 well plates The medium used was RPMI with 10% fetal calf serum B-9 cells were added and were cultured for 3 days. The extent of proliferation of B-9 cells was determined by the incorporation of radioactive thymidine as described in Strassmann et al., J. Clin. Invest., 89, pp. 1681-84 (May 1992). […] (See Strassmann et al., J. Clin. Invest., 89, pp. 1681-84 (May 1992), incorporated herein by reference.)
The same procedures set forth in Example 5 was followed except that a different sulfate-containing compound, Pentosan polysulfate, was used.
The same procedure set forth in Example 5 was followed except in this example, Dextran sulfate and Dextran, were used instead of Suramin.

[2] = test system: IL-6 receptor; assay: Radioreceptor assay: binding of 125I-IL-6 to U266 cells; design: species or system human; settings: for binding of radioactive IL-6 to U266 cells: 90 minutes at 4° C., increasing amounts of compound
Procedure: This experiment analyzed whether suramin inhibits IL-6 bioactivity by interfering with binding to the IL-6 receptor. Into eighteen test tubes was placed U266 indicator cells (obtained from ATCC), a binding buffer, made up of RPMI medium, 0.1 mg BSA and […] Hepes, and 100,000 cpm (0.8 ng) of ^125 I-IL-6. The tubes were divided into six groups of three tubes each and received suramin as follows: group 1 had 300 uM suramin; group 2 had 100 uM suramin; group 3 had 30 uM suramin; group 4 had 10 uM suramin; and group 5 had no suramin, but only medium (control for maximal binding). In addition, group 6 received excess unlabeled IL-6 without suramin for use in determining the background of binding in this assay.
After 90 minutes of incubation at 4° C. and the centrifugation of cells on oil (a standard radioreceptor assay) Strassmann, J. Immunol., 147:1279-1289 (1991), the amount of radioactivity bound to the cells was determined. […] Also, the addition of increasing amounts of suramin prevented the binding of radioactive IL-6 to U266 human myeloma indicator cells in vitro as reflected in the results set forth in FIG. 6.
The same procedure set forth in Example 6 was followed, except that Pentosan polysulfate was used instead of Suramin.

[3] = test system: C-26 cachexia; assay: Time course of C-26 mediated weight loss and tumor volume (Example 2); type: in vivo, mice; settings: 100 mg/kg intraperitoneally days 7 and 12
Procedure: In subsequent experiments, eight mice obtained from the same source as above were injected with 0.5 ml PBS intraperitoneally and eight other mice from the same source as above were injected with 100 mg/kg body weight of suramin intraperitoneally. The injections were given on days 7 and 12. The weight of the two groups was measured several times a week.

[4] = test system: 125I-IL-6; assay: 125I-IL-6 sequestration in vivo (liver, kidney, spleen radioactivity); design: species or system mice; settings: for Kidney radioactivity / Liver radioactivity / Spleen radioactivity: 5 mg/mouse, mean ± 0.5 range of 2 mice
Procedure: The ability to prevent binding of IL-6 in vivo was analyzed as follows. Eight mice received 5.0 mg/mouse of suramin intravenously and eight other mice received 0.2 ml PBS/mouse intravenously 0.5 hour. Thereafter, all sixteen of the mice received an injection of 300,000 cpm (2.4 ng) of ^125 I-IL-6. Four mice from each group were sacrificed 30 minutes after receiving the ^125 I-IL-6 and the remaining four mice from each group were sacrificed 60 minutes after receiving the ^125 I-IL-6. The liver, kidney, and spleen were removed and measured for radioactivity (cpm).

[5] = test system: C-26 cachexia; assay: Dose dependence of C-26 cachexia inhibition (Example 3); type: in vivo, mice; settings: increasing amounts intraperitoneally; day 17; FIG. 3
Procedure: Mice were obtained and injected with C-26 cells as set forth above for Example 1, and then were put into four groups of five mice each. The mice were injected intraperitoneally with increasing amounts of suramin as indicated in FIG. 3 except for the control mice. On day 17, the total weight of each group was compared to a control group of five mice which had been injected with 0.5 ml PBS intraperitoneally.

[6] = test system: C-26.IVX cells derived from the colon adenocarcinoma; assay: Suramin blocks C-26 mediated cachexia (Example 1); type: in vivo, mice; settings: 200 mg/kg I.P. d7, 13
Procedure: Eleven male mice (CD)2F1 obtained from Charles Rivers Laboratories were weighed and then were inoculated with 0.5×10^6 C-26.IVX cells derived from the colon adenocarcinoma (by the procedure described in Strassmann et al., J. Clin. Invest., 89, pp. 1681-84 (May 1992) which is incorporated herein by reference). The day of inoculation was identified as day 0 (d0). On days 7 and 13, five of these mice each received intraperitoneally 0.5 ml of PBS (phosphate buffered saline) and the other six mice each received intraperitoneally 200 mg/kg body weight of suramin diluted in 0.5 ml PBS. On day 19, all the mice were sacrificed and the final total weight, the host weight, the tumor weight, epididymal fat, and dry weight were measured.

[7] = test system: turpentine-induced wasting; assay: Turpentine-induced wasting (Example 4); type: in vivo, mice; settings: 100 mg/kg intraperitoneally day -3, 0.1 ml turpentine i.m. day 0, FIG. 4
Procedure: (See Gershenwald et al., "Interleukin 1 receptor blockade attenuates the host inflammatory response" Proc. Natl. Acad. Sci., 87 4966-70, (July, 1990) for a description of the turpentine-induced wasting procedure). In this experiment, three days before day 0 (day -3), five male (CD)2F1 mice, obtained from Charles Rivers Laboratories, each received intraperitoneally 0.5 ml of PBS. Five other mice obtained from the same source each received intraperitoneally 100 mg/kg body weight suramin diluted with 0.5 ml of PBS.

[8] = test system: cachexia-inducing action of CF; settings: Silva et al., Infection and Immunity 1988; cited from earlier work
[9] = 5.0 mg/mouse intravenously 0.5 hour before 125I-IL-6

Dextran
cpm of 3H-thymidine incorporation, B-9 cells ([1]; compound 30 μM, IL-6 3 pg/ml): 24007 cpm | cpm of 3H-thymidine incorporation, B-9 cells ([1]; compound 30 μM, IL-6 10 pg/ml): 143003 cpm | cpm of 3H-thymidine incorporation, B-9 cells ([1]; compound 30 μM, IL-6 30 pg/ml): 231856 cpm | cpm of 3H-thymidine incorporation, B-9 cells ([1]; compound 100 μM, IL-6 3 pg/ml): 29577 cpm | cpm of 3H-thymidine incorporation, B-9 cells ([1]; compound 100 μM, IL-6 10 pg/ml): 136191 cpm | cpm of 3H-thymidine incorporation, B-9 cells ([1]; compound 100 μM, IL-6 30 pg/ml): 230321 cpm | cpm of 3H-thymidine incorporation, B-9 cells ([1]; compound 300 μM, IL-6 3 pg/ml): 27015 cpm | cpm of 3H-thymidine incorporation, B-9 cells ([1]; compound 300 μM, IL-6 10 pg/ml): 140903 cpm | cpm of 3H-thymidine incorporation, B-9 cells ([1]; compound 300 μM, IL-6 30 pg/ml): 245701 cpm | proliferation of B-9 cells in response to IL-6 [1]: did not prevent the proliferation of B-9 cells in response to IL-6

hIL-6: excess unlabeled IL-6 used for determining the background of binding in the radioreceptor assay
cpm 125I-IL-6 bound to U266 cells ([2]; 270 ng/ml unlabeled competitor (background of binding)): 1416 cpm

Cc1ccc(C(=O)Nc2ccc(S(=O)(=O)O)c3cc(S(=O)(=O)O)cc(S(=O)(=O)O)c23)cc1NC(=O)c1cccc(NC(=O)Nc2cccc(C(=O)Nc3cc(C(=O)Nc4ccc(S(=O)(=O)O)c5cc(S(=O)(=O)O)cc(S(=O)(=O)O)c45)ccc3C)c2)c1 [Suramin, 8-8'-[Carbonylbis[imino-3,1-phenylenecarbonylimino(4-methyl-3,1-phenylene)carbonylimino]]bis-1,3,5-naphthalenetrisulfonic acid hexasodium salt]
bioactivity of IL-6 (proliferation of B-9 cells) ([1]; preincubated with IL-6, 3 days culture, FIG. 5): inhibits the bioactivity of IL-6; also recorded: inhibition of bioactivity of IL-6 | C-26 mediated weight loss over time ([3]; FIG. 1): inhibited C-26 mediated weight loss in a significant time dependent manner; also recorded: time dependent inhibition of C-26 cachexia | tumor (C-26) growth in vivo (tumor volume) ([3]; FIG. 2): no significant effect on the tumor (C-26) growth in-vivo except on day 19; also recorded: lack of effect | binding of radioactive IL-6 to U266 cells [2]: prevents binding of the IL-6 to the U266 cells in a dose dependent manner; also recorded: prevention of the binding of IL-6 to human myeloma cells | less radioactivity measured in the liver versus PBS [4, 9]: approximately 50% | radioactive IL-6 present in the kidney [4, 9]: increase of radioactive IL-6 present in the kidney | Kidney radioactivity ([4]; Expt. 1, 30 minutes): 70151 ± 125 cpm | Liver radioactivity ([4]; Expt. 1, 30 minutes): 8385 ± 1525 cpm/gm | Spleen radioactivity ([4]; Expt. 1, 30 minutes): 1347 ± 295 cpm | Kidney radioactivity ([4]; Expt. 1, 60 minutes): 36595 ± 1760 cpm | Liver radioactivity ([4]; Expt. 1, 60 minutes): 4275 ± 91 cpm/gm | Spleen radioactivity ([4]; Expt. 1, 60 minutes): 630 ± 6 cpm | Kidney radioactivity ([4]; Expt. 2, 30 minutes): 57287 ± 2849 cpm | Liver radioactivity ([4]; Expt. 2, 30 minutes): 9277 ± 235 cpm/gm | Spleen radioactivity ([4]; Expt. 2, 30 minutes): 1306 ± 4 cpm | Kidney radioactivity ([4]; Expt. 2, 60 minutes): 38254 ± 466 cpm | Liver radioactivity ([4]; Expt. 2, 60 minutes): 5512 ± 379 cpm/gm | Spleen radioactivity ([4]; Expt. 2, 60 minutes): 631 ± 25 cpm | percentage of weight loss (wasting) versus dose [5]: inhibited wasting in a dose dependent manner; also recorded: dose dependent inhibition of C-26 cachexia | % weight loss ([6]; d19, individual mouse): 5.3% and 17.6% and 10.5% and 15.4% and 18.6% and 5.1% | Dry wt ([6]; d19, individual mouse): 7.8 g and 6.5 g and 6.6 g and 6.4 g | Final total wt. ([6]; d19, individual mouse): 25.9 g and 25.2 g and 26.2 g and 25.5 g and 25.4 g and 27.4 g | Host's wt. ([6]; d19, individual mouse): 25.0 g and 23.3 g and 24.2 g and 23.5 g and 23.1 g and 25.8 g | IL-6 ([6]; d19, individual mouse): 292 U/ml and 360 U/ml and 310 U/ml and 535 U/ml and 477 U/ml and 328 U/ml | Serum Glucose ([6]; d19, individual mouse): 128 mg/dL and 114 mg/dL and 100 mg/dL and 110 mg/dL and 109 mg/dL and 116 mg/dL | Tumor wt ([6]; d19, individual mouse): 0.93 g and 1.98 g and 2.08 g and 1.96 g and 2.36 g and 1.64 g | % weight loss ([6]; d19, mean ±SD of six mice): 12.0% | Dry wt ([6]; d19, mean ±SD of six mice): 6.7 ± 0.5 g | Host's wt. ([6]; d19, mean ±SD of six mice): 24.2 g | IL-6 ([6]; d19, mean ±SD of six mice): 384 U/ml | Serum Glucose ([6]; d19, mean ±SD of six mice): 113 ± 9 mg/dL | Tumor wt ([6]; d19, mean ±SD of six mice): 1.82 g | % weight loss ([6]; d19, mean ±SD of six mice, listed as suramin): 12.0±6.0% | Final total wt. ([6]; sacrificed d19, mean ±SD of six mice): 26.9 ± 0.8 g | turpentine-induced weight loss [7]: exhibited no such weight loss; also recorded: prevention of turpentine-induced wasting

Pentosan polysulfate
cpm of 3H-thymidine, B-9 cells ([1]; compound 300 μM, IL-6 added 1 pg/ml): 1567 cpm | cpm of 3H-thymidine, B-9 cells ([1]; compound 300 μM, IL-6 added 3 pg/ml): 2648 cpm | cpm of 3H-thymidine, B-9 cells ([1]; compound 300 μM, IL-6 added 10 pg/ml): 11456 cpm | cpm of 3H-thymidine, B-9 cells ([1]; compound 300 μM, IL-6 added 30 pg/ml): 60287 cpm | cpm of 3H-thymidine, B-9 cells ([1]; compound 1000 μM, IL-6 added 1 pg/ml): 795 cpm | cpm of 3H-thymidine, B-9 cells ([1]; compound 1000 μM, IL-6 added 3 pg/ml): 1062 cpm | cpm of 3H-thymidine, B-9 cells ([1]; compound 1000 μM, IL-6 added 10 pg/ml): 3586 cpm | cpm of 3H-thymidine, B-9 cells ([1]; compound 1000 μM, IL-6 added 30 pg/ml): 26727 cpm | proliferation of B-9 cells in response to IL-6 [1]: prevented the proliferation of B-9 cells | cpm 125I-IL-6 bound to U266 cells ([2]; 3 μM): 3000 cpm | cpm 125I-IL-6 bound to U266 cells ([2]; 30 μM): 2575 cpm | cpm 125I-IL-6 bound to U266 cells ([2]; 300 μM): 2003 cpm | binding of radioactive IL-6 to U266 cells [2]: inhibited the binding of radioactive IL-6 to U266 human myeloma cells

C[C@@H]1C[C@H]2[C@@H]3CCC4=CC(=O)C=C[C@]4(C)[C@@]3(F)[C@@H](O)C[C@]2(C)[C@@]1(O)C(=O)CO [Dexamethasone]
cachexia-inducing action of CF [8]: partially inhibit the cachexia-inducing action of CF

Dextran sulfate
cpm of 3H-thymidine incorporation, B-9 cells ([1]; compound 30 μM, IL-6 3 pg/ml): 7603 cpm | cpm of 3H-thymidine incorporation, B-9 cells ([1]; compound 30 μM, IL-6 10 pg/ml): 68066 cpm | cpm of 3H-thymidine incorporation, B-9 cells ([1]; compound 30 μM, IL-6 30 pg/ml): 204155 cpm | cpm of 3H-thymidine incorporation, B-9 cells ([1]; compound 100 μM, IL-6 3 pg/ml): 8075 cpm | cpm of 3H-thymidine incorporation, B-9 cells ([1]; compound 100 μM, IL-6 10 pg/ml): 31678 cpm | cpm of 3H-thymidine incorporation, B-9 cells ([1]; compound 100 μM, IL-6 30 pg/ml): 150233 cpm | cpm of 3H-thymidine incorporation, B-9 cells ([1]; compound 300 μM, IL-6 3 pg/ml): 2461 cpm | cpm of 3H-thymidine incorporation, B-9 cells ([1]; compound 300 μM, IL-6 10 pg/ml): 16573 cpm | cpm of 3H-thymidine incorporation, B-9 cells ([1]; compound 300 μM, IL-6 30 pg/ml): 112835 cpm | proliferation of B-9 cells in response to IL-6 [1]: prevented the proliferation of B-9 cells in response to IL-6
